Consider 5 molecules from patent US20160303251A1, “CONJUGATES OF GARFTASE INHIBITORS” (ENDOCYTE, INC., priority 2015, published 2016).

In one experiment the test system is KB cells. Nature of the experiment: In vitro activity in KB cells (3H-thymidine incorporation). The experiment is classed as cell-based, human. The settings on record: 2 hr pulse at 37° C., chase up to 70 hr. As for the experimental part:
Cells were seeded in 24-well Falcon plates and allowed to form nearly confluent monolayers overnight. After one rinse with 1 mL of fresh FFRPMI/HIFCS, each well received 1 mL of medium containing increasing concentrations of test agent (3 wells per sample). Cells were pulsed with targeted agents for 2 hr at 37° C., rinsed 4 times with 0.5 mL of medium, and then chased in 1 mL of fresh medium up to 70 hr. Cells were treated with non-targeted agent ECO347 for a continuous 72 h. Spent medium was aspirated from all wells and replaced with fresh medium containing 5 μCi/mL ^3H-thymidine. After a further 2 hr 37° C. incubation, cells were washed 3 times with 0.5 mL of PBS and then treated with 0.5 mL of ice-cold 5% trichloroacetic acid per well. After 15 min, the trichloroacetic acid. was aspirated and the cell material solubilized by the addition of 0.5 mL of 0.25 N sodium hydroxide for 15 min. Four hundred and fifty microliters of each solubilized sample were transferred to scintillation vials containing 3 mL of Ecolume scintillation cocktail and then counted in a liquid scintillation counter. Final tabulated results were expressed as the percentage of ^3H-thymidine incorporation relative to untreated controls and IC50 values calculated using Graphpad Prism software.
For orientation: Dividing cells build labelled thymidine or BrdU into new DNA.

In a further experiment the test system is subcutaneous KB tumors. In words: Antitumor activity in KB tumor model. The experiment is classed as in vivo, mice. As to conditions: for PR, complete responses or cure: 1 μmol/kg. As for the experimental part:
METHOD. Inhibition of Tumor Growth in Mice. Four to seven week-old mice (Balb/c or nu/nu strains) are purchased from Harlan Sprague Dawley, Inc. (Indianapolis, Ind.). […] For tumor cell inoculation, 1×10^6 M109 cells (a syngeneic lung carcinoma) in Balb/c strain, or 1×10^6 KB cells in nu/nu strain, in 100 μL are injected in the subcutis of the dorsal medial area (right axilla). Tumors are measured in two perpendicular directions every 2-3 days using a caliper, and their volumes are calculated as 0.5×L×W^2, where L=measurement of longest axis in mm and W=measurement of axis perpendicular to L in mm.
Dosing is initiated when the s.c. tumors have an average volume between 50-100 […] (t0), typically 8 days post tumor inoculation (PTI) for KB tumors, and 11 days PTI for M109 tumors. Test animals (5/group) are injected i.v., generally three times a week (TIW), for 3 weeks with varying doses, such as with 1 μmol/kg to 5 μmol/kg, of the conjugate or with an equivalent dose volume of PBS (control), unless otherwise indicated. Dosing solutions are prepared fresh each day in PBS and administered through the lateral tail vein of the mice.
Female Balb/c nu/nu mice were fed ad libitum with folate-deficient chow (Harlan diet #TD01013) for the duration of the experiment. KB tumor cells were inoculated subcutaneously at the right flank of each mouse. Mice were dosed after the tumors have reached a range of 107-152 mm^3 through the lateral tail vein under sterile conditions in a volume of 200 μL of phosphate-buffered saline (PBS).
Growth of each s.c. tumor was followed by measuring the tumor two times per week. Tumors were measured in two perpendicular directions using Vernier calipers, and their volumes were calculated as 0.5×L×W^2, where L=measurement of longest axis in mm and W=measurement of axis perpendicular to L in mm.

Setting [1] is: 0.5 μmol/kg (EC1953 printed 0.5 mol/kg), TIW×2 wk, n=5.
The mark [2] stands for this setting: 1 μmol/kg (EC1953, EC 2014 printed 1 mol/kg), TIW×2 wk, n=5.
The mark [3] stands for this setting: mice having subcutaneous KB tumors.

`Nc1nc2[nH]c(CCCc3ccc(C(=O)N[C@@H](CCC(=O)O)C(=O)O)s3)cc2c(=O)[nH]1` [AG94, reference compound] showed an IC50 in the experiment with KB cells (Homo sapiens) of 2.5 nM. In addition, the “PR, complete responses or cure” value with subcutaneous KB tumors (TIW×2 wk, n=5) is “none of the treatment groups showed a PR, complete responses, or cure”.
Molecule `Nc1nc2[nH]c(CCCCCCCC(=O)N[C@@H](CCC(=O)O)C(=O)O)cc2c(=O)[nH]1` [AG147, reference compound] displayed a 50% inhibitory concentration (IC50) with KB cells (Homo sapiens) of 1.2 nM.
Molecule `CCCC(=O)OCN(C(=O)[C@@H](NC(=O)[C@H]1CCCCN1C)C(C)CC)[C@H](C[C@@H](OC(C)=O)c1nc(C(=O)N[C@@H](Cc2ccc(O)cc2)C[C@H](C)C(=O)NNC(=O)OCCSSCCC(=O)N[C@@H](CCC(=O)NC[C@H](O)[C@@H](O)[C@H](O)[C@H](O)CO)C(=O)N[C@@H](CCC(=O)O)C(=O)N[C@@H](CCC(=O)NC[C@H](O)[C@@H](O)[C@H](O)[C@H](O)CO)C(=O)N[C@@H](CCC(=O)O)C(=O)N[C@@H](CCC(=O)NC[C@H](O)[C@@H](O)[C@H](O)[C@H](O)CO)C(=O)N[C@@H](CSSCCOC(=O)CC[C@H](NC(=O)c2ccc(CCCc3cc4c(=O)[nH]c(N)nc4[nH]3)s2)C(=O)O)C(=O)O)cs1)C(C)C` (some centres unmarked) [EC1953] registered a half-inhibitory concentration (IC50) with KB cells of 0.4 nM. The “CR (complete responses) of {PR, CR, cure}” value in the experiment with subcutaneous KB tumors (setting [1]) was found to be 1. In the experiment with subcutaneous KB tumors (setting [1]), the “PR (partial responses) of {PR, CR, cure}” value is given as 3. For the same molecule, the “cure of {PR, CR, cure}” value with subcutaneous KB tumors (setting [2]) came out at 5; in the experiment with subcutaneous KB tumors (2 umol/kg, q5d×2 wk (independent dosing protocol)), 5; in the experiment on subcutaneous KB tumors (2 μmol/kg, single dose, n=5), 2; in the experiment with subcutaneous KB tumors (2 mol/kg (so in the source), TIW×2 wk, n=5), 5. The “cures, observation period extended for 90 days” value was 5/5 in the experiment on subcutaneous KB tumors (1 mol/kg (so in the source), TIW×2 wk) and 5/5 in the experiment with subcutaneous KB tumors (2 mol/kg (so in the source), TIW×2 wk). In addition, the “dose response” value with subcutaneous KB tumors (setting [3]) is “shows a dose response”. The “efficacy compared to comparator” value in the experiment with subcutaneous KB tumors (setting [3]) is recorded as “more efficacious than the comparator folate-tubulysin conjugate”.
For the molecule `CCCC(=O)OCN(C(=O)[C@@H](NC(=O)[C@H]1CCCCN1C)C(C)CC)[C@H](C[C@@H](OC(C)=O)c1nc(C(=O)N[C@@H](Cc2ccc(O)cc2)C[C@H](C)C(=O)NNC(=O)OCCSSCCC(=O)N[C@@H](CCC(=O)NC[C@H](O)[C@@H](O)[C@H](O)[C@H](O)CO)C(=O)N[C@@H](CCC(=O)O)C(=O)N[C@@H](CCC(=O)NC[C@H](O)[C@@H](O)[C@H](O)[C@H](O)CO)C(=O)N[C@@H](CCC(=O)O)C(=O)N[C@@H](CCC(=O)NC[C@H](O)[C@@H](O)[C@H](O)[C@H](O)CO)C(=O)N[C@@H](CSSCCOC(=O)CC[C@H](NC(=O)CCCCCCCc2cc3c(=O)[nH]c(N)nc3[nH]2)C(=O)O)C(=O)O)cs1)C(C)C` (some centres unmarked) [EC2014], in the experiment on KB cells, the IC50 is 0.34 nM. Moreover, the “cure of {PR, CR, cure}” value in the experiment with subcutaneous KB tumors (setting [2]) came out at 5.
Regarding “tubulysin B-monohydrazide [reference compound]”, in the experiment with subcutaneous KB tumors (TIW×2 wk, n=5), the “PR, complete responses or cure” value is “none of the treatment groups showed a PR, complete responses, or cure”.

By IC50 is commonly meant the concentration that gives 50% inhibition. Lower therefore signals greater potency in that assay.
